“Also recorded” adds a separate entry of the source.
Experiments:
[1] = active metabolite in vivo, compared with torsemide (Drugs 41 (1): 81-103, 1991); cited from earlier work
[2] = cited from earlier work
Male SD rats = test: Comparison of diuretic effects: urine output in saline-loaded rats; assay type: in vivo, rat; conditions: 10 mg/kg, ig, after 30 mL/kg normal saline, urine collected for 4 h
Protocol: Male SD rats (body weight: 180±20 g) were randomly divided into 14 groups with 3 rats in each group. Each rat was administrated 30 mL/kg normal saline through intragastric administration. After intragastric administration of normal saline, except the blank control group, each group was administrated one drug (10 mg/kg, ig, 1 mg/mL, formulation prescription: normal saline dissolution). Urination for 4 h was collected.

[3] = Comparison of water solubility; conditions: for Phenomenon: at the API:water ratio given

In the case of `Cc1cc(Nc2ccncc2S(=O)(=O)NC(=O)NC(C)C)ccc1O` [Compound M3], the pharmacological activity [1] is given as “comparable to torsemide”, the solubility in water [2] is given as “has not been effectively improved” and the Urine output (Male SD rats) is given as 107.2 mL/kg. For the same molecule, the Phenomenon [3] was “Completely dissolved” and the “Conclusion (water solubility)” value [3] was “Slightly soluble”.
For `Cc1cccc(Nc2ccncc2S(=O)(=O)NC(=O)NC(C)C)c1` [Torsemide, 1-[4-(3-methylphenyl)aminopyridin-3-yl]sulfonyl-3-isopropylurea], the “solubility in 0.1 mol/L sodium hydroxide solution” value ([2]; 0.1 mol/L sodium hydroxide solution) is listed as “slightly soluble”, the solubility in water [2] is listed as “almost insoluble in water; also recorded: very slightly soluble in water” and the Urine output (Male SD rats) is listed as 105.3 mL/kg. For the same molecule, the Phenomenon [3] was “Completely dissolved” and the “Conclusion (water solubility)” value [3] was “Very slightly”.

Source: US11814405B2, “Pyridine sulfonamide phosphate compound, preparation method therefor, and use thereof” (Shanghai Xunhe Pharmaceutical Technology Co. Ltd., priority 2019, dated 2023)
